We go through 15 molecules from patent US10508109B2 (priority 2015, dated 2019).

For one assay, the system named is A549. The assay is described as follows: Cell-based assay, anti-proliferative activity (Cell Counting Kit-8, 72 hours). The note with it: Homo sapiens, A549 cells, read-out: IC50 (μM) A549. The essentials: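 Cells were seeded in 96-well plates and exposed to candidate inhibitors. Cellular growth was then determined with the colorimetric kit, and IC50 values were calculated from the growth data.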

The next assay concerns CCD-18Co. The description is as above. Conditions: Homo sapiens, CCD-18Co cells, read-out: IC50 (μM) CCD-18Co. The essentials:
(§1)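 Cells were seeded in 96-well plates and exposed to the inhibitors for 72 hours, after which growth was measured with Cell Counting Kit-8. IC50 was derived from a serial dilution series of 0, 1.5625, 3.125, 6.25, 12.5, 25, 50 and 100 micro-M.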

For another assay, the system named is HCT-116. The assay is described as above. Conditions: Homo sapiens, HCT-116 cells, read-out: IC50 (μM) HCT-116. Put shortly:
as §1

The next assay deals with HFL1. The description is as above. Conditions: Homo sapiens, HFL1 cells, read-out: IC50 (μM) HFL1. Put shortly: as §1
A further assay relates to PC14. Described as above. The note with it: Homo sapiens, PC-14, PC14 cells, read-out: IC50 (μM) PC14. The essentials:
as §1

In another assay the target is SUV39H2 (Homo sapiens (Human), UniProt Q9H5I1). Conditions: read-out: IC50 (μM) Suv 39H2 assay; enzyme assay.

Structures can show the parent of a compound that is named as a salt. Where two headings read alike, the source gives them in different places.

Chain of SUV39H2 (Q9H5I1 whole entry): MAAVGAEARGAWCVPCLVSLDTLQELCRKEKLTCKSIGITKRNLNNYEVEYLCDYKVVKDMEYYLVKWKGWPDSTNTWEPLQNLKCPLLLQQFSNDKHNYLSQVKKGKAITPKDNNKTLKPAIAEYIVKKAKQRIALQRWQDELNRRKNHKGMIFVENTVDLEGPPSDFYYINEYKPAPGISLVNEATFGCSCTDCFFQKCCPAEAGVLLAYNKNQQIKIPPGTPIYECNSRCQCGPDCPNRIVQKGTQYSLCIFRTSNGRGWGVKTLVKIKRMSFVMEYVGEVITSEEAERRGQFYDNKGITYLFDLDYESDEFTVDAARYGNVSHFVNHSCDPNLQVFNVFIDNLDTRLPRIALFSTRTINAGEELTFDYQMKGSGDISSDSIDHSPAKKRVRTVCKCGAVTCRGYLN

Turning to `COC(=O)NC1CCN(c2ccn3cc(-c4cc(Cl)c(OC)cc4OC)nc3c2)CC1` [Example 122, methyl (1-(2-(5-chloro-2,4-dimethoxyphenyl)imidazo[1,2-a]pyridin-7-yl)piperidin-4-yl)carbamate], the IC50 in the assay with A549 (Cell Counting Kit-8, 72 hours) stood at 2.7 µM; with CCD-18Co (Cell Counting Kit-8, 72 hours) it was 6.4 µM; in the assay on HCT-116 (Cell Counting Kit-8, 72 hours) it was 5.8 µM; in the assay with HFL1 (Cell Counting Kit-8, 72 hours), 4.9 µM; with PC14 (Cell Counting Kit-8, 72 hours), 3.3 µM; at SUV39H2, 0.00814 µM.
As for `COc1cc(C)c(Cl)cc1-c1cn2ccc(N3CCOCC3)cc2n1` [Example 230, 4-(2-(5-chloro-2-methoxy-4-methylphenyl)imidazo[1,2-a]pyridin-7-yl)morpholine], the IC50 came out at 4.4 µM with A549 (72 hours, Cell Counting Kit-8); 3.5 µM in the assay on CCD-18Co (72 hours, Cell Counting Kit-8); 4 µM in the assay with HCT-116 (72 hours, Cell Counting Kit-8); 2.8 µM in the assay on HFL1 (72 hours, Cell Counting Kit-8); 1.6 µM with PC14 (72 hours, Cell Counting Kit-8); 0.0183 µM on SUV39H2.
With `COc1cc(OC)c(-c2cn3ccc(-c4ccc(NCc5ncc[nH]5)cc4)cc3n2)cc1Cl` [Example 270, N-((1H-imidazol-2-yl)methyl)-4-(2-(5-chloro-2,4-dimethoxyphenyl)-imidazo[1,2-a]pyridin-7-yl)aniline], the IC50 was determined as 0.99 µM in the assay on A549 (72 hours, Cell Counting Kit-8); 1.7 µM with CCD-18Co (72 hours, Cell Counting Kit-8); 1 µM with HCT-116 (72 hours, Cell Counting Kit-8); 0.89 µM in the assay with HFL1 (72 hours, Cell Counting Kit-8); 0.45 µM with PC14 (72 hours, Cell Counting Kit-8); 0.0199 µM on SUV39H2.
Consider `COc1cc(OC)c(-c2cn3ccc(N4CCC(NS(C)(=O)=O)CC4)nc3n2)cc1Cl` [Example 192, N-(1-(2-(5-chloro-2,4-dimethoxyphenyl)imidazo[1,2-a]pyrimidin-7-yl)-piperidin-4-yl)methanesulfonamide], for which the IC50 in the assay with A549 (Cell Counting Kit-8, 72 hours) was determined as 10 µM; in the assay with CCD-18Co (Cell Counting Kit-8, 72 hours), 5.3 µM; with HCT-116 (Cell Counting Kit-8, 72 hours), 10 µM; in the assay on HFL1 (Cell Counting Kit-8, 72 hours) it was 5.1 µM; in the assay on PC14 (Cell Counting Kit-8, 72 hours) it was 10 µM; on SUV39H2, 0.0148 µM.
As to `COc1cc(OCCCN(C)C)c(-c2cn3ccc(N4CCC(NS(C)(=O)=O)CC4)cc3n2)cc1Cl` [Example 164, N-(1-(2-(5-chloro-2-(3-(dimethylamino)propoxy)-4-methoxyphenyl)-imidazo[1,2-a]pyridin-7-yl)piperidin-4-yl)methanesulfonamide], the IC50 in the assay with A549 (Cell Counting Kit-8, 72 hours) stood at 10 µM; with CCD-18Co (Cell Counting Kit-8, 72 hours), 7.2 µM; in the assay on HCT-116 (Cell Counting Kit-8, 72 hours), 9 µM; with HFL1 (Cell Counting Kit-8, 72 hours) it was 8.6 µM; in the assay on PC14 (Cell Counting Kit-8, 72 hours) it was 8.8 µM; on SUV39H2, 0.0211 µM.
As for `COc1cc(OC)c(-c2cn3ccc(N4CCC[C@@H](N)C4)cc3n2)cc1Cl` [Example 30, (R)-1-(5-chloro-2,4-dimethoxyphenyl)imidazo[1,2-a]pyridine-7-yl)piperidin-3-amine dihydrochloride], the IC50 is 3.4 µM in the assay with A549 (Cell Counting Kit-8, 72 hours); 3.9 µM in the assay with CCD-18Co (Cell Counting Kit-8, 72 hours); 5.1 µM in the assay on HCT-116 (Cell Counting Kit-8, 72 hours); 2 µM in the assay with HFL1 (Cell Counting Kit-8, 72 hours); 2.3 µM with PC14 (Cell Counting Kit-8, 72 hours); 0.009 µM on SUV39H2.
In the case of `COc1cc(OC)c(-c2cn3ccc(N4CCN(CCCN(C)C)C4=O)cc3n2)cc1Cl` [Example 167, 1-(2-(5-chloro-2,4-dimethoxyphenyl)imidazo[1,2-a]pyridin-7-yl)-3-(3-(dimethylamino)propyl)imidazolidin-2-one], the IC50 worked out at 6.4 µM in the assay on A549 (Cell Counting Kit-8, 72 hours); 6.9 µM with CCD-18Co (Cell Counting Kit-8, 72 hours); 6.8 µM in the assay on HCT-116 (Cell Counting Kit-8, 72 hours); 6.5 µM in the assay with HFL1 (Cell Counting Kit-8, 72 hours); 3.9 µM with PC14 (Cell Counting Kit-8, 72 hours); 0.0124 µM on SUV39H2.
Consider `COCCCN1CCN(c2ccn3cc(-c4cc(Cl)c(OC)cc4OC)nc3c2)CC1` [Example 96, 2-(5-chloro-2,4-dimethoxyphenyl)-7-(4-(3-methoxypropyl)piperazin-1-yl)imidazo[1,2-a]pyridine], for which the IC50 came out at 6.9 µM with A549 (Cell Counting Kit-8, 72 hours); 6.8 µM in the assay on CCD-18Co (Cell Counting Kit-8, 72 hours); 9 µM with HCT-116 (Cell Counting Kit-8, 72 hours); 8.4 µM in the assay with HFL1 (Cell Counting Kit-8, 72 hours); 6.4 µM in the assay with PC14 (Cell Counting Kit-8, 72 hours); 0.00833 µM at SUV39H2.
In the case of `COc1cc(OC)c(-c2cn3ccc(-c4ccc(C(=O)NCC5CCCNC5)cc4)cc3n2)cc1Cl` (stereo not drawn) [Example 251, 4-(2-(5-chloro-2,4-dimethoxyphenyl)imidazo[1,2-a]pyridin-7-yl)-N-(piperidin-3-ylmethyl)benzamide], the IC50 with A549 (72 hours, Cell Counting Kit-8) came out at 9.7 µM; in the assay on CCD-18Co (72 hours, Cell Counting Kit-8), 10 µM; in the assay with HCT-116 (72 hours, Cell Counting Kit-8), 5.8 µM; with HFL1 (72 hours, Cell Counting Kit-8), 8.3 µM; in the assay with PC14 (72 hours, Cell Counting Kit-8) it was 5.4 µM; at SUV39H2, 0.0308 µM.
For the molecule `COc1cc(OC)c(-c2cn3ccc(N4CCN(S(=O)(=O)C5CC5)C(CO)C4)cc3n2)cc1Cl` (stereo not drawn) [Example 236, (4-(2-(5-chloro-2,4-dimethoxyphenyl)imidazo[1,2-a]pyridin-7-yl)-1-(cyclopropylsulfonyl)piperazin-2-yl)methanol], the concentration for half-maximal inhibition (IC50) in the assay on A549 (72 hours, Cell Counting Kit-8) stood at 4.8 µM; in the assay on CCD-18Co (72 hours, Cell Counting Kit-8), 4 µM; in the assay with HCT-116 (72 hours, Cell Counting Kit-8) it was 4.4 µM; in the assay with HFL1 (72 hours, Cell Counting Kit-8) it was 4.1 µM; in the assay with PC14 (72 hours, Cell Counting Kit-8) it was 3.3 µM; on SUV39H2, 0.00655 µM.
Consider `COc1cc(OC)c(-c2cn3ccc(N4CCN(CCCC(=O)O)CC4)cc3n2)cc1Cl` [Example 240, 4-(4-(2-(5-chloro-2,4-dimethoxyphenyl)imidazo[1,2-a]pyridine-7-yl)piperazin-1-yl)butanoic acid], for which the IC50 worked out at 10 µM with A549 (72 hours, Cell Counting Kit-8); 10 µM in the assay on CCD-18Co (72 hours, Cell Counting Kit-8); 10 µM in the assay on HCT-116 (72 hours, Cell Counting Kit-8); 10 µM in the assay with HFL1 (72 hours, Cell Counting Kit-8); 10 µM in the assay with PC14 (72 hours, Cell Counting Kit-8); 0.0063 µM on SUV39H2.
Consider `COc1cc(OC)c(-c2cn3ccc(N4CCC(CO)CC4)cc3n2)cc1Cl` [Example 41, (1-(2-(5-chloro-2,4-dimethoxyphenyl)imidazo[1,2-a]pyridine-7-yl)piperidin-4-yl)methanol], for which the IC50 in the assay on A549 (Cell Counting Kit-8, 72 hours) was determined as 3.2 µM; in the assay on CCD-18Co (Cell Counting Kit-8, 72 hours) it was 3.1 µM; with HCT-116 (Cell Counting Kit-8, 72 hours), 3.5 µM; in the assay with HFL1 (Cell Counting Kit-8, 72 hours), 2.9 µM; with PC14 (Cell Counting Kit-8, 72 hours) it was 2.8 µM; at SUV39H2, 0.0054 µM.
For `COc1cc(OC)c(-c2cn3ccc(N4CCN(c5ccccc5)CC4)cc3n2)cc1Cl` [Example 282, 2-(5-chloro-2,4-dimethoxyphenyl)-7-(4-phenylpiperazin-1-yl)-imidazo[1,2-a]pyridine], the IC50 came out at 1.5 µM in the assay with A549 (72 hours, Cell Counting Kit-8); 1.5 µM with CCD-18Co (72 hours, Cell Counting Kit-8); 1.4 µM in the assay with HCT-116 (72 hours, Cell Counting Kit-8); 1.4 µM with HFL1 (72 hours, Cell Counting Kit-8); 0.96 µM with PC14 (72 hours, Cell Counting Kit-8); 0.0349 µM on SUV39H2.
For `COc1cc(OC)c(-c2cn3ccc(N4CCC(NS(=O)(=O)N(C)C)CC4)cc3n2)cc1Cl` [Example 181, N-{1-[2-(5-Chloro-2,4-dimethoxyphenyl)imidazo[1,2-a]pyridin-7-yl]piperidin-4-yl}N,N-dimethylsulfonamide], the IC50 was determined as 0.76 µM in the assay with A549 (Cell Counting Kit-8, 72 hours); 0.38 µM with CCD-18Co (Cell Counting Kit-8, 72 hours); 1.6 µM with HCT-116 (Cell Counting Kit-8, 72 hours); 0.35 µM with HFL1 (Cell Counting Kit-8, 72 hours); 1.5 µM in the assay with PC14 (Cell Counting Kit-8, 72 hours); 0.0139 µM at SUV39H2.
As to `COc1cc(OC)c(-c2cn3cc(NCCN)c(OC)cc3n2)cc1Cl` [Example 75, N^1-(2-(5-chloro-2,4-dimethoxyphenyl)-7-methoxyimidazo[1,2-a]-pyridin-6-yl)ethane-1,2-diamine], the IC50 in the assay with A549 (Cell Counting Kit-8, 72 hours) was determined as 6.9 µM; in the assay with CCD-18Co (Cell Counting Kit-8, 72 hours), 7.2 µM; in the assay on HCT-116 (Cell Counting Kit-8, 72 hours) it was 6.7 µM; in the assay with HFL1 (Cell Counting Kit-8, 72 hours) it was 3.5 µM; in the assay with PC14 (Cell Counting Kit-8, 72 hours), 5.7 µM; at SUV39H2 it was 0.00271 µM.
